Reference: PubChem BioAssay (NCI)
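Compound exposure: 48 hours, 5 concentrations, 96-well plates. At the GI50, growth is halved. The concentration for full growth arrest is given as TGI.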

Tests used:
Assay in all cases: DTP human tumour cell line panel, 48 h
[1] = system: SK-MEL-28 melanoma
[2] = system: IGROV1 ovarian
[3] = system: HL-60(TB) leukemia
[4] = system: ACHN renal
[5] = system: MCF7 breast
[6] = system: SW-620 colon
[7] = system: 786-0 renal
[8] = system: BT-549 breast
[9] = system: PC-3 prostate
[10] = system: SF-539 CNS
[11] = system: RXF 393 renal
[12] = system: HCT-116 colon
[13] = system: CAKI-1 renal
[14] = system: HCC-2998 colon
[15] = system: OVCAR-8 ovarian
[16] = system: NCI-H460 lung
[17] = system: UACC-62 melanoma
[18] = system: HCT-15 colon
[19] = system: SK-MEL-5 melanoma
[20] = system: RPMI-8226 leukemia
[21] = system: A549 NSCLC
[22] = system: U251 CNS
[23] = system: HT29 colon
[24] = system: OVCAR-5 ovarian
[25] = system: OVCAR-4 ovarian
[26] = system: UO-31 renal
[27] = system: SN12C renal
[28] = system: NCI-H226 lung
[29] = system: MDA-MB-231 breast
[30] = system: COLO 205 colon
[31] = system: EKVX NSCLC
[32] = system: HS 578T breast
[33] = system: MOLT-4 leukemia
[34] = system: DU-145 prostate
[35] = system: MDA-MB-435
[36] = system: SF-268 CNS
[37] = system: M14 melanoma
[38] = system: HOP-92 NSCLC
[39] = system: HOP-62 NSCLC
[40] = system: SNB-75 CNS
[41] = system: CCRF-CEM leukemia
[42] = system: SNB-19 CNS
[43] = system: NCI-H23 lung
[44] = system: OVCAR-3 ovarian
[45] = system: MALME-3M melanoma
[46] = system: SF-295 CNS
[47] = system: LOX IMVI melanoma
[48] = system: SK-MEL-2 melanoma
[49] = system: SK-OV-3 ovarian
[50] = system: TK-10 renal
[51] = system: K-562 leukemia
[52] = system: SR leukemia
[53] = system: UACC-257 melanoma
[54] = system: T-47D breast
[55] = system: KM12 colon
[56] = system: NCI-H522 lung
[57] = system: NCI/ADR-RES ovarian

Q: Which GI50 [1] does the source give for O=C(OCC1OC(n2cc(C(F)(F)F)c(=O)[nH]c2=O)CC1OC(=O)c1ccc([N+](=O)[O-])cc1)c1ccc([N+](=O)[O-])cc1 (centres undefined) here?
A: > 100 µM

Q: What about the TGI [1] of the same compound?
A: > 100 µM

Q: What about the GI50 [2] of the same compound?
A: 25.4 µM

Q: What about the TGI [2] of the same compound?
A: > 100 µM

Q: And the GI50 [3]?
A: 7.37 µM

Q: And the TGI [3]?
A: > 100 µM

Q: What about the GI50 [4] of the same compound?
A: 1.17 µM

Q: And the TGI [4]?
A: > 100 µM

Q: What about the GI50 [5] of the same compound?
A: 1.26 µM

Q: And the TGI [5]?
A: > 100 µM

Q: What about the GI50 [6] of the same compound?
A: 6.2 µM

Q: What about the TGI [6] of the same compound?
A: > 100 µM

Q: And the GI50 [7]?
A: 3.11 µM

Q: What about the TGI [7] of the same compound?
A: 18.6 µM

Q: What about the GI50 [8] of the same compound?
A: 7.42 µM

Q: And the TGI [8]?
A: > 100 µM

Q: And the GI50 [9]?
A: 8.74 µM

Q: And the TGI [9]?
A: > 100 µM

Q: What about the GI50 [10] of the same compound?
A: 2.03 µM

Q: And the TGI [10]?
A: > 100 µM

Q: And the GI50 [11]?
A: 4.54 µM

Q: And the TGI [11]?
A: > 100 µM

Q: What about the GI50 [12] of the same compound?
A: 8.5 µM

Q: What about the TGI [12] of the same compound?
A: > 100 µM

Q: What about the GI50 [13] of the same compound?
A: 3.29 µM

Q: And the TGI [13]?
A: > 100 µM

Q: What about the GI50 [14] of the same compound?
A: 5.38 µM

Q: And the TGI [14]?
A: > 100 µM

Q: What about the GI50 [15] of the same compound?
A: 6.91 µM

Q: What about the TGI [15] of the same compound?
A: > 100 µM

Q: What about the GI50 [16] of the same compound?
A: 3.43 µM

Q: And the TGI [16]?
A: > 100 µM

Q: And the GI50 [17]?
A: 1.41 µM

Q: What about the TGI [17] of the same compound?
A: > 100 µM

Q: What about the GI50 [18] of the same compound?
A: 20.8 µM

Q: And the TGI [18]?
A: > 100 µM

Q: And the GI50 [19]?
A: 4.55 µM

Q: And the TGI [19]?
A: > 100 µM

Q: What about the GI50 [20] of the same compound?
A: 2.12 µM

Q: And the TGI [20]?
A: > 100 µM

Q: And the GI50 [21]?
A: 4.95 µM

Q: What about the TGI [21] of the same compound?
A: > 100 µM

Q: What about the GI50 [22] of the same compound?
A: 9.08 µM

Q: And the TGI [22]?
A: > 100 µM

Q: And the GI50 [23]?
A: > 100 µM

Q: And the TGI [23]?
A: > 100 µM

Q: And the GI50 [24]?
A: 41.8 µM

Q: What about the TGI [24] of the same compound?
A: > 100 µM

Q: What about the GI50 [25] of the same compound?
A: 54.7 µM

Q: And the TGI [25]?
A: > 100 µM

Q: And the GI50 [26]?
A: 3.77 µM

Q: And the TGI [26]?
A: > 100 µM

Q: What about the GI50 [27] of the same compound?
A: 4.28 µM

Q: What about the TGI [27] of the same compound?
A: > 100 µM

Q: What about the GI50 [28] of the same compound?
A: 9.42 µM

Q: What about the TGI [28] of the same compound?
A: > 100 µM

Q: What about the GI50 [29] of the same compound?
A: > 100 µM

Q: And the TGI [29]?
A: > 100 µM

Q: What about the GI50 [30] of the same compound?
A: > 100 µM

Q: And the TGI [30]?
A: > 100 µM

Q: What about the GI50 [31] of the same compound?
A: > 100 µM

Q: What about the TGI [31] of the same compound?
A: > 100 µM

Q: And the GI50 [32]?
A: > 100 µM

Q: What about the TGI [32] of the same compound?
A: > 100 µM

Q: What about the GI50 [33] of the same compound?
A: 14.8 µM

Q: And the TGI [33]?
A: > 100 µM

Q: What about the GI50 [34] of the same compound?
A: 0.885 µM

Q: What about the TGI [34] of the same compound?
A: > 100 µM

Q: And the GI50 [35]?
A: 2.36 µM

Q: What about the TGI [35] of the same compound?
A: > 100 µM

Q: What about the GI50 [36] of the same compound?
A: 3.87 µM

Q: And the TGI [36]?
A: > 100 µM

Q: What about the GI50 [37] of the same compound?
A: 1.96 µM

Q: What about the TGI [37] of the same compound?
A: 7.82 µM

Q: What about the GI50 [38] of the same compound?
A: 8.55 µM

Q: And the TGI [38]?
A: > 100 µM

Q: What about the GI50 [39] of the same compound?
A: 8.97 µM

Q: What about the TGI [39] of the same compound?
A: > 100 µM

Q: What about the GI50 [40] of the same compound?
A: 8.92 µM

Q: And the TGI [40]?
A: > 100 µM

Q: And the GI50 [41]?
A: 3.86 µM

Q: And the TGI [41]?
A: > 100 µM

Q: What about the GI50 [42] of the same compound?
A: > 100 µM

Q: And the TGI [42]?
A: > 100 µM

Q: And the GI50 [43]?
A: > 100 µM

Q: And the TGI [43]?
A: > 100 µM

Q: What about the GI50 [44] of the same compound?
A: 23.8 µM

Q: And the TGI [44]?
A: > 100 µM

Q: And the GI50 [45]?
A: 92.3 µM

Q: And the TGI [45]?
A: > 100 µM

Q: And the GI50 [46]?
A: 3.72 µM

Q: And the TGI [46]?
A: > 100 µM

Q: And the GI50 [47]?
A: 4.81 µM

Q: And the TGI [47]?
A: > 100 µM

Q: What about the GI50 [48] of the same compound?
A: > 100 µM

Q: What about the TGI [48] of the same compound?
A: > 100 µM

Q: And the GI50 [49]?
A: 8.51 µM

Q: And the TGI [49]?
A: > 100 µM

Q: And the GI50 [50]?
A: > 100 µM

Q: What about the TGI [50] of the same compound?
A: > 100 µM

Q: What about the GI50 [51] of the same compound?
A: 94 µM

Q: What about the TGI [51] of the same compound?
A: > 100 µM

Q: What about the GI50 [52] of the same compound?
A: 11.3 µM

Q: And the TGI [52]?
A: > 100 µM

Q: And the GI50 [53]?
A: 2.7 µM

Q: What about the TGI [53] of the same compound?
A: > 100 µM

Q: And the GI50 [54]?
A: 7.88 µM

Q: And the TGI [54]?
A: > 100 µM

Q: What about the GI50 [55] of the same compound?
A: > 100 µM

Q: What about the TGI [55] of the same compound?
A: > 100 µM

Q: What about the GI50 [56] of the same compound?
A: 5.65 µM

Q: What about the TGI [56] of the same compound?
A: > 100 µM

Q: And the GI50 [57]?
A: 16.7 µM

Q: And the TGI [57]?
A: > 100 µM
